In patent publication US8349844B2, “Substituted pyrazolo [1,5-A] pyrimidines as metabotropic glutamate antagonists” (Hoffmann-La Roche Inc., priority 2005, dated 2013) one finds melting point data, which are given here for 28 compounds.

A word on the melting point: it is the temperature, or range, at which the solid turns liquid. `NS(=O)(=O)c1cccc(-c2noc(-c3cnn4c(C(F)(F)F)cc(-c5ccc(C(F)(F)F)cc5)nc34)n2)c1` [Example 2, 3-{5-[7-Trifluoromethyl-5-(4-trifluoromethyl-phenyl)-pyrazolo[1,5-a]pyrimidin-3-yl]-[1,2,4]oxadiazol-3-yl}-benzenesulfonamide] registered a melting point of 262 °C.

Consider `NS(=O)(=O)c1ccc(-c2noc(-c3cnn4c(C(F)F)cc(-c5ccc(C(F)(F)F)cc5)nc34)n2)cc1` [Example 4, 4-{5-[7-Difluoromethyl-5-(4-trifluoromethyl-phenyl)-pyrazolo[1,5-a]pyrimidin-3-yl]-[1,2,4]oxadiazol-3-yl}-benzenesulfonamide], for which the melting point turned out to be 283 °C.

For `NS(=O)(=O)c1cccc(-c2noc(-c3cnn4c(C(F)F)cc(-c5ccc(C(F)(F)F)cc5)nc34)n2)c1` [Example 5, 3-{5-[7-Difluoromethyl-5-(4-trifluoromethyl-phenyl)-pyrazolo[1,5-a]pyrimidin-3-yl]-[1,2,4]oxadiazol-3-yl}-benzenesulfonamide], the melting point was 267 °C.

The compound `NS(=O)(=O)c1cccc(-c2noc(-c3cnn4c(C(F)(F)F)cc(-c5ccc(Cl)cc5)nc34)n2)c1` [Example 10, 3-{5-[5-(4-Chloro-phenyl)-7-trifluoromethyl-pyrazolo[1,5-a]pyrimidin-3-yl]-[1,2,4]oxadiazol-3-yl}-benzenesulfonamide] yielded a melting point of 247 °C.

With `NS(=O)(=O)c1ccc(-c2noc(-c3cnn4c(C(F)(F)F)cc(-c5ccc(Cl)cc5)nc34)n2)cc1` [Example 12, 4-{5-[5-(4-Chloro-phenyl)-7-trifluoromethyl-pyrazolo[1,5-a]pyrimidin-3-yl]-[1,2,4]oxadiazol-3-yl}-benzenesulfonamide], the melting point was 296 °C.

Take `NS(=O)(=O)c1ccc(-c2noc(-c3cnc4c(C(F)(F)F)cc(-c5ccc(C(F)(F)F)cc5)cn34)n2)cc1` [Example 13, 4-{5-[8-Trifluoromethyl-6-(4-trifluoromethyl-phenyl)-imidazo[1,2-a]pyridin-3-yl]-[1,2,4]oxadiazol-3-yl}-benzenesulfonamide]: the melting point worked out at 292 °C.

Regarding `NS(=O)(=O)c1ccc(-c2nc(-c3cnn4c(C(F)(F)F)cc(-c5ccc(C(F)(F)F)cc5)nc34)no2)cc1` [Example 14, 4-{3-[7-Trifluoromethyl-5-(4-trifluoromethyl-phenyl)-pyrazolo[1,5-a]pyrimidin-3-yl]-[1,2,4]oxadiazol-5-yl}-benzenesulfonamide], the melting point was 292 °C.

On to `NS(=O)(=O)c1cccc(-c2nc(-c3cnn4c(C(F)(F)F)cc(-c5ccc(C(F)(F)F)cc5)nc34)no2)c1` [Example 15, 3-{3-[7-Trifluoromethyl-5-(4-trifluoromethyl-phenyl)-pyrazolo[1,5-a]pyrimidin-3-yl]-[1,2,4]oxadiazol-5-yl}-benzenesulfonamide], for which the melting point was determined as 285 °C.

Compound `NS(=O)(=O)c1cccc(-c2noc(-c3cnn4c(C(F)(F)F)cc(-c5ccc(C(F)(F)F)c(OCC(F)(F)F)c5)nc34)n2)c1` [Example 16, 3-(5-{5-[3-(2,2,2-Trifluoro-ethoxy)-4-trifluoromethyl-phenyl]-7-trifluoromethyl-pyrazolo[1,5-a]pyrimidin-3-yl}-[1,2,4]oxadiazol-3-yl)-benzenesulfonamide] showed a melting point of 250 °C.

Compound `Cc1cc(-c2cc(C(F)(F)F)n3ncc(-c4nc(-c5cccc(S(N)(=O)=O)c5)no4)c3n2)ccc1C(F)(F)F` [Example 17, 3-{5-[5-(3-Methyl-4-trifluoromethyl-phenyl)-7-trifluoromethyl-pyrazolo[1,5-a]pyrimidin-3-yl]-[1,2,4]oxadiazol-3-yl}-benzenesulfonamide] had a melting point of 270 °C.

`Cc1cc(-c2cc(C(F)(F)F)n3ncc(-c4nc(-c5ccc(S(N)(=O)=O)cc5)no4)c3n2)ccc1C(F)(F)F` [Example 18, 4-{5-[5-(3-Methyl-4-trifluoromethyl-phenyl)-7-trifluoromethyl-pyrazolo[1,5-a]pyrimidin-3-yl]-[1,2,4]oxadiazol-3-yl}-benzenesulfonamide] had a melting point of 273 °C.

Turning to `NS(=O)(=O)c1cccc(-c2noc(-c3cnn4c(C(F)F)cc(-c5ccc(Cl)cc5)nc34)n2)c1` [Example 19, 3-{5-[5-(4-Chloro-phenyl)-7-difluoromethyl-pyrazolo[1,5-a]pyrimidin-3-yl]-[1,2,4]oxadiazol-3-yl}-benzenesulfonamide], the melting point came to 231 °C.

Consider `Cc1cc(-c2cc(C(F)(F)F)n3ncc(-c4nc(-c5ccc(S(N)(=O)=O)s5)no4)c3n2)ccc1C(F)(F)F` [Example 22, 5-{5-[5-(3-Methyl-4-trifluoromethyl-phenyl)-7-trifluoromethyl-pyrazolo[1,5-a]pyrimidin-3-yl]-[1,2,4]oxadiazol-3-yl}-thiophene-2-sulfonic acid amide], for which the melting point came out at 324 °C.

In turn, `NS(=O)(=O)c1ccc(-c2noc(-c3cnn4c(C(F)(F)F)cc(-c5ccc(C(F)(F)F)c(OCC(F)(F)F)c5)nc34)n2)s1` [Example 23, 5-(5-{5-[3-(2,2,2-Trifluoro-ethoxy)-4-trifluoromethyl-phenyl]-7-trifluoromethyl-pyrazolo[1,5-a]pyrimidin-3-yl}-[1,2,4]oxadiazol-3-yl)-thiophene-2-sulfonic acid amide] yielded a melting point of 255 °C.

For the compound `NS(=O)(=O)c1ccc(-c2noc(-c3cnn4c(C(F)(F)F)cc(-c5cccc(C(F)(F)F)c5)nc34)n2)cc1` [Example 25, 4-{5-[7-Trifluoromethyl-5-(3-trifluoromethyl-phenyl)-pyrazolo[1,5-a]pyrimidin-3-yl]-[1,2,4]oxadiazol-3-yl}-benzenesulfonamide], the melting point amounted to 300 °C.

Consider `NS(=O)(=O)c1cccc(-c2noc(-c3cnn4c(C(F)(F)F)cc(-c5cccc(C(F)(F)F)c5)nc34)n2)c1` [Example 26, 3-{5-[7-Trifluoromethyl-5-(3-trifluoromethyl-phenyl)-pyrazolo[1,5-a]pyrimidin-3-yl]-[1,2,4]oxadiazol-3-yl}-benzenesulfonamide], for which the melting point amounted to 251 °C.

In turn, `NS(=O)(=O)c1ccc(-c2noc(-c3cnn4c(C(F)(F)F)cc(-c5ccc(Cl)cc5)nc34)n2)s1` [Example 28, 5-{5-[5-(4-Chloro-phenyl)-7-trifluoromethyl-pyrazolo[1,5-a]pyrimidin-3-yl]-[1,2,4]oxadiazol-3-yl}-thiophene-2-sulfonic acid amide] registered a melting point of 294 °C.

`NS(=O)(=O)c1ccc(-c2noc(-c3cnn4c(C(F)F)cc(-c5ccc(Cl)cc5)nc34)n2)s1` [Example 29, 5-{5-[5-(4-Chloro-phenyl)-7-difluoromethyl-pyrazolo[1,5-a]pyrimidin-3-yl]-[1,2,4]oxadiazol-3-yl}-thiophene-2-sulfonic acid amide] showed a melting point of 259 °C.

`Cc1cc(-c2ccc(Cl)cc2)nc2c(-c3nc(-c4ccc(S(N)(=O)=O)s4)no3)cnn12` [Example 32, 5-{5-[5-(4-Chloro-phenyl)-7-methyl-pyrazolo[1,5-a]pyrimidin-3-yl]-[1,2,4]oxadiazol-3-yl}-thiophene-2-sulfonic acid amide] displayed a melting point of 253 °C.

Compound `NS(=O)(=O)c1ccc(-c2nc(-c3cnn4c(C(F)(F)F)cc(-c5ccc(C(F)(F)F)cc5)nc34)no2)s1` [Example 33, 5-{3-[7-Trifluoromethyl-5-(4-trifluoromethyl-phenyl)-pyrazolo[1,5-a]pyrimidin-3-yl]-[1,2,4]oxadiazol-5-yl}-thiophene-2-sulfonic acid amide] came in with a melting point of 272 °C.

The compound `Nc1ccc(-c2noc(-c3cnn4c(C(F)(F)F)cc(-c5ccc(C(F)(F)F)cc5)nc34)n2)cn1` [Example 35, 5-{5-[7-Trifluoromethyl-5-(4-trifluoromethyl-phenyl)-pyrazolo[1,5-a]pyrimidin-3-yl]-[1,2,4]oxadiazol-3-yl}-pyridin-2-ylamine] came in with a melting point of 257 °C.

Compound `Nc1ccc(-c2noc(-c3cnn4c(C(F)F)cc(-c5ccc(C(F)(F)F)cc5)nc34)n2)cn1` [Example 36, 5-{5-[7-Difluoromethyl-5-(4-trifluoromethyl-phenyl)-pyrazolo[1,5-a]pyrimidin-3-yl]-[1,2,4]oxadiazol-3-yl}-pyridin-2-ylamine] had a melting point of 242 °C.

Turning to `Cc1cc(-c2cc(C(F)(F)F)n3ncc(-c4nc(-c5ccc(N)nc5)no4)c3n2)ccc1C(F)(F)F` [Example 37, 5-{5-[5-(3-Methyl-4-trifluoromethyl-phenyl)-7-trifluoromethyl-pyrazolo[1,5-a]pyrimidin-3-yl]-[1,2,4]oxadiazol-3-yl}-pyridin-2-ylamine], the melting point stood at 220 °C.

Consider `Cc1cc(-c2ccc(Cl)cc2)nc2c(-c3nc(-c4cccc(S(N)(=O)=O)c4)no3)cnn12` [Example 38, 3-{5-[5-(4-Chloro-phenyl)-7-methyl-pyrazolo[1,5-a]pyrimidin-3-yl]-[1,2,4]oxadiazol-3-yl}-benzenesulfonamide], for which the melting point is 275 °C.

Consider `Cc1cc(-c2ccc(Cl)cc2)cn2c(-c3nc(-c4ccc(S(N)(=O)=O)cc4)no3)cnc12` [Example 39, 4-{5-[6-(4-Chloro-phenyl)-8-methyl-imidazo[1,2-a]pyridin-3-yl]-[1,2,4]oxadiazol-3-yl}-benzenesulfonamide], for which the melting point came to 311 °C.

Consider `Cc1cc(-c2ccc(Cl)cc2)cn2c(-c3nc(-c4cccc(S(N)(=O)=O)c4)no3)cnc12` [Example 40, 3-{5-[6-(4-Chloro-phenyl)-8-methyl-imidazo[1,2-a]pyridin-3-yl]-[1,2,4]oxadiazol-3-yl}-benzenesulfonamide], for which the melting point was found to be 301 °C.

As to `Cc1cc(-c2ccc(C(F)(F)F)cc2)cn2c(-c3nc(-c4ccc(S(N)(=O)=O)cc4)no3)cnc12` [Example 43, 4-{5-[8-Methyl-6-(4-trifluoromethyl-phenyl)-imidazo[1,2-a]pyridin-3-yl]-[1,2,4]oxadiazol-3-yl}-benzenesulfonamide], the melting point turned out to be 290 °C.

Turning to `Cc1cc(-c2ccc(C(F)(F)F)cc2)cn2c(-c3nc(-c4cccc(S(N)(=O)=O)c4)no3)cnc12` [Example 44, 3-{5-[8-Methyl-6-(4-trifluoromethyl-phenyl)-imidazo[1,2-a]pyridin-3-yl]-[1,2,4]oxadiazol-3-yl}-benzenesulfonamide], the melting point was determined as 326 °C.
